Laboratory results published in patent publication US20240409519A1, “HYDROGENATED QUINOXALINES” (OTSUKA PHARMACEUTICAL CO., LTD., priority 2021, published 2024).

Columns and labels:
[1] = biological target: T1, norepinephrine (NE) uptake (Rattus norvegicus, UniProt Q63380); assay: Norepinephrine (NE) uptake inhibitory activity using rat brain synaptosome; format: biochemical; details: rat hippocampus synaptosome, tritium-labeled NE 12 nM; read-out: IC50 (nM), norepinephrine (NE) uptake inhibition
T1 construct: used as crude synaptosomal fraction; from tissue; host or cells: rat hippocampus, crude synaptosomal fraction
Description: (§1) Male Wistar rats were decapitated, each brain was removed, and the hippocampus was cut out. […] The homogenate was centrifuged at 1000 g at 4° C. for 10 minutes, and the supernatant was further centrifuged at 20000 g at 4° C. for 20 minutes. The pellet was suspended in an incubation buffer (20 mM Hepes buffer (pH 7.4) containing 10 mM glucose, 145 mM sodium chloride, 4.5 mM potassium chloride, 1.2 mM magnesium chloride and 1.5 mM calcium chloride) and used as crude synaptosomal fraction.
Each well of a 96-well round-bottom plate was used for the uptake reaction in a total volume of 200 μL solution containing purgurin (final concentration 10 μM) and ascorbic acid (final concentration 0.2 mg/mL).
After 10 minutes, the uptake reaction was terminated by suction filtration onto a 96-well glass fiber filter plate. The filters were rinsed with cold physi-ological saline solution, dried thoroughly, and micro scintillation 0 (Perkin-Elmer) was added thereto. Then, the residual radioactivity on the filters was measured.
The uptake value when only solvent was added was set as 100%, the uptake value when unlabeled NE (final concentration 10 μM) was added as 0% (nonspecific uptake value), and the 50% inhibitory concentration was calculated from the concentration of the test compound and its inhibitory activity.

dopamine (DA) uptake = biological target: T2, dopamine (DA) uptake (Rattus norvegicus, UniProt P23977); assay: Dopamine (DA) uptake inhibitory activity using rat brain synaptosome; format: biochemical; details: rat striatum synaptosome, tritium-labeled DA 2 nM; read-out: IC50 (nM), dopamine (DA) uptake inhibition
T2 construct: used as crude synaptosomal fraction; from tissue; host or cells: rat striatum, crude synaptosomal fraction
Description: as §1, with “striatum” for “hippocampus”
Each well of a 96-well round-bottom plate was used for the uptake reaction in a total volume of 200 μl solution containing purgurin (final concentration 10 μM) and ascorbic acid (final concentration 0.2 mg/mL). In other words, solvent, unlabeled DA or step-diluted test compound was added to each well, and one-tenth of the final volume of the synaptosomal fraction was added to each well, followed by pre-incubation at 37° C. for 10 minutes, and then tritium-labeled DA solution (final concentration 2 nM) was added and the uptake reaction was initiated at 37° C. After 10 minutes, the uptake reaction was terminated by suction filtration onto a 96-well glass fiber filter plate. The filters were rinsed with cold physi-ological saline solution, dried thoroughly, and micro scintillation 0 (Perkin-Elmer) was added thereto. Then, the residual radioactivity on the filters was measured.
The uptake value when only solvent was added was set as 100%, the uptake value when unlabeled DA (final concentration 10 μM) was added as 0% (nonspecific uptake value), and the 50% inhibitory concentration was calculated from the concentration of the test compound and its inhibitory activity.

CYP2D6 = biological target: T3, CYP2D6 (Homo sapiens, UniProt P10635); assay: CYP inhibition test (1): inhibition rate (%) at one concentration, CYP2D6; format: in vitro ADME; details: human liver microsomes, pH 7.4, probe bufuralol (0.01 mmol/L); test compound 0.01 mmol/L, human liver microsome 0.1 mg/mL, substrate bufuralol, 37° C. 10 minutes; read-out: inhibition rate (%) 2D6
T3 construct: a human liver microsome solution containing three CYP-specific substrates; from tissue; host or cells: human liver microsomes
Description: (§2) A metabolic reaction was initiated by adding and mixing a test compound solution (final concentration 0.01 mmol/L) and a NADH/NADPH solution (final concentration 1 mmol/L) to a human liver microsome solution containing three CYP-specific substrates (final concentration 100 mmol/L potassium phosphate buffer solution (pH 7.4), 5 mmol/L magnesium chloride, 0.1 mg/mL human liver microsome, 0.005 mmol/L diclofenac (for CYP2C9), 0.01 mmol/L bufuralol (for […]), 0.005 mmol/L midazolam (for CYP3A4)). As an internal standard solution, a solution of each of stable isotopes of the metabolites (50 ng/mL [13C6] hydroxy diclofenac, 5 ng/mL [2H9] hydroxy bufuralol, and 5 ng/mL [13C6] hydroxy midazolam (all stable isotopes)) in methanol was prepared and used as a quenching solution.
(§3) Specifically, a metabolic reaction was initiated by adding and mixing 2 μL of a solution of a test compound in acetonitrile (or acetonitrile as a control) to 178 μL of a human liver microsome solution in ice water, followed by preincubation at 37° C. for 1 minute, and then adding 20 μL of a NADH/NADPH solution thereto. After incubation at 37° C. for 10 minutes, 50 μL of the reaction mixture was taken, and then it was added and mixed to 500 μL of a quenching solution to quech the reaction. The mixture was centrifuged (6130 g, 4° C., 10 minutes) and the supernatant was used as a sample for LC-MS/MS.
(§4) Peak area ratio ([peak area of metabolite]/[peak area of corresponding stable isotope]) was calculated for a metabolite and a stable isotope of the metabolite as measurement object. By comparing the peak area ratio of each test compound solution with that of the control, the inhibition rate (%) of each CYP species for each test compound was calculated from (1-[peak area ratio of each test compound solution]/[peak area ratio of control])×100.

CYP3A4 = biological target: T4, CYP3A4 (Homo sapiens, UniProt P08684); assay: CYP inhibition test (1): inhibition rate (%) at one concentration, CYP3A4; format: in vitro ADME; details: human liver microsomes, pH 7.4, probe midazolam (0.005 mmol/L); test compound 0.01 mmol/L, human liver microsome 0.1 mg/mL, substrate midazolam, 37° C. 10 minutes; read-out: inhibition rate (%) 3A4
T4 construct: a human liver microsome solution containing three CYP-specific substrates; from tissue; host or cells: human liver microsomes
Description: as §2, §3, §4

[2] = Metabolic stability test (human liver microsome, hepatic intrinsic clearance); format: in vitro ADME; details: human liver microsomes, pH 7.4; human liver microsome 0.2 mg/mL, test compound 0.001 mmol/L, 37° C., 0, 10 and 20 minutes
Description: A metabolic reaction was initiated by adding and mixing a test compound solution (final concentration 0.001 mmol/L) and a NADH/NADPH solution (final concentration 1 mmol/L) to a human liver microsome solution (final concentration 100 mmol/L potassium phosphate buffer solution (pH 7.4), 5 mmol/L magnesium chloride, 0.2 mg/ml, human liver microsome). A solution of the internal standard in methanol was prepared and used as a quenching solution.
Specifically, a metabolic reaction was initiated by adding and mixing 2.5 μL of a solution of a test compound in acetonitrile to 222.5 μL of a human liver microsome solution in ice water, followed by preincubation at 37° C. for 1 minute, and then adding 25 μL of a NADH/NADPH solution thereto.
The mixture was centrifuged (6130 g, 4° C., 10 minutes) and the supernatant was used as a sample for LC-MS/MS.
Peak area ratio ([peak area of test compound]/[peak area of internal standard]) was calculated for the test compound and the internal standard.
The residual ratio of the test compound was calculated from ([Ratio of peak areas at each reaction time]/[Ratio of peak areas at 0 minute reaction time]).

T2 sequence (P23977 whole entry): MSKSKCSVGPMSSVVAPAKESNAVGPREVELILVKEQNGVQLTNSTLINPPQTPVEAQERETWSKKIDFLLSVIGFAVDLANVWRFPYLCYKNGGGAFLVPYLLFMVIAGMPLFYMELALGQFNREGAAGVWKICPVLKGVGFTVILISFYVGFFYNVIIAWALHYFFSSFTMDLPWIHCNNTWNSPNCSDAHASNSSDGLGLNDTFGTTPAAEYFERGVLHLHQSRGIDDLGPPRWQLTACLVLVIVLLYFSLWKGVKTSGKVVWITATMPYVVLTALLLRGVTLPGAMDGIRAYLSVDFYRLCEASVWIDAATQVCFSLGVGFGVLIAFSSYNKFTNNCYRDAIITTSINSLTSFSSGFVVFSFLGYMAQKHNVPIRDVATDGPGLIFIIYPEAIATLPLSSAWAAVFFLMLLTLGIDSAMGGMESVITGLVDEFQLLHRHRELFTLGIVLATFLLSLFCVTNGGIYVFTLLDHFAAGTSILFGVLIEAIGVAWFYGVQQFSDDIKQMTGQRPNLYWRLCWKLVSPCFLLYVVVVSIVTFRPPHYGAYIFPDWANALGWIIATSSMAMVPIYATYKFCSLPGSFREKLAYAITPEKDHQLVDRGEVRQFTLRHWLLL
T1 sequence (Q63380 1-617): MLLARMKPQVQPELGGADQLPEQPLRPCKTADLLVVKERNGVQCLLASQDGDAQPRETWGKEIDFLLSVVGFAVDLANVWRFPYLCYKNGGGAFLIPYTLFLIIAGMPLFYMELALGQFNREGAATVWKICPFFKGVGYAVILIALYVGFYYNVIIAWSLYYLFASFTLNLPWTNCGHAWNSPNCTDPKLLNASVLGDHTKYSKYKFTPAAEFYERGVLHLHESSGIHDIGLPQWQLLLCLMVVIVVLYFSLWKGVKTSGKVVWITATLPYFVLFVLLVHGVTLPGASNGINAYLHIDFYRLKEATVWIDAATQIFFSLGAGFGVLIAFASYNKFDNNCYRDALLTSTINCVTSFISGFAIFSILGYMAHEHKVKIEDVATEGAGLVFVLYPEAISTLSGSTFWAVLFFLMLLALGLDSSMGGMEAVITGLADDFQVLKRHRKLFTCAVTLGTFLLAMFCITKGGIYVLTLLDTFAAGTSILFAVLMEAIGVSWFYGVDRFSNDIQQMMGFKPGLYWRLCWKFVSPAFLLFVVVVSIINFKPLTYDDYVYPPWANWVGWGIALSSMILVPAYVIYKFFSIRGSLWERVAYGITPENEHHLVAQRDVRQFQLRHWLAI
T4 sequence (P08684 whole entry): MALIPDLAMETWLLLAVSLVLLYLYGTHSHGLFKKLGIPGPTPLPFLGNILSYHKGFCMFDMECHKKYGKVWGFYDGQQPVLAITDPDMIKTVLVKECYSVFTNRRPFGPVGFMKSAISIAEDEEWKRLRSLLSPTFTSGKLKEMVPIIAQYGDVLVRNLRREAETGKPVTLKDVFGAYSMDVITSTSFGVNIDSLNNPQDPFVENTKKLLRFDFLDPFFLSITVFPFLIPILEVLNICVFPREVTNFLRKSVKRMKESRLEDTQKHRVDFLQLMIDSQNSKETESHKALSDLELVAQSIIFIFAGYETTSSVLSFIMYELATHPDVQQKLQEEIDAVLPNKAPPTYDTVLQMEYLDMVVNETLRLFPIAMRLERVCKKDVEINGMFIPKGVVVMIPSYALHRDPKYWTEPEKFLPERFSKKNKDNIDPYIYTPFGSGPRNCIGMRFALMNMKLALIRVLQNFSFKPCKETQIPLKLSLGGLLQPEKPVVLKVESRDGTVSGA
T3 sequence (P10635 whole entry): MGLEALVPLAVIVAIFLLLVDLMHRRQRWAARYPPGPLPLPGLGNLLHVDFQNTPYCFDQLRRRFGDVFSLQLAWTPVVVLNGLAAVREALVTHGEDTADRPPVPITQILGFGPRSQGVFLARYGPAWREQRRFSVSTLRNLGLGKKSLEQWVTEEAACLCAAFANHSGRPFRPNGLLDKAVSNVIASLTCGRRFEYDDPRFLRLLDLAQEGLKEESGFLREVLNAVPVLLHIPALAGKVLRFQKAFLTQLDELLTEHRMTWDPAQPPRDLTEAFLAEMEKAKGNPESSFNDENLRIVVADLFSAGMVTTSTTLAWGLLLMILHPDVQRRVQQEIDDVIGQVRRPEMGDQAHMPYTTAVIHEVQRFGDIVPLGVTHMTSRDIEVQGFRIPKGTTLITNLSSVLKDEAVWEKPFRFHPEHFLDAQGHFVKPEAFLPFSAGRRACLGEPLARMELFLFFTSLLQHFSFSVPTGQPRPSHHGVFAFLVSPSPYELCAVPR

SMILES | IC50 [1] | IC50 (dopamine (DA) uptake) | inhibition at 10 min, 0.01 mmol/L (CYP2D6) | inhibition at 10 min, 0.01 mmol/L (CYP3A4) | microsomal CLint at 0.001 mmol/L [2]
CC1(C)CN(c2ccc(OCCO)c(F)c2)[C@H]2CCCC[C@H]2N1 [Example 52] | 8.3 nM | 74.4 nM | 23% | 0.1% | < 50 µL/min/mg
Cc1c(N2CC(C)(C)N[C@@H]3CCCC[C@@H]32)ccc(OC(F)(F)CO)c1F [Example 57] | 4.9 nM | 88 nM | 14.9% | 8.6% | 58 µL/min/mg
Cc1cc(N2CC(C)(C)N[C@@H]3CCCC[C@@H]32)cc(F)c1OC(F)(F)CO [Example 58] | 6.4 nM | 58.4 nM | 16.1% | 13.1% | < 50 µL/min/mg
CC1(C)CN(c2ccc(OC(F)(F)CO)cc2F)[C@H]2CCCC[C@H]2N1 [Example 61, 2-(4-((4aR,8aS)-3,3-dimethyloctahydroquinoxalin-1(2H)-yl)-3-fluorophenoxy)-2,2-difluoroethan-1-ol 1/2fumarate] | 6.1 nM | 60.2 nM | 16.1% | -2.7% | < 50 µL/min/mg
CC1(C)CN(c2cc(Br)c(OCCO)cc2F)[C@H]2CCCC[C@H]2N1 [Example 62] | 6.9 nM | 273 nM | 17.8% | -1.6% | < 50 µL/min/mg
CC1(C)CN(c2ccc(OCCO)c(Br)c2F)[C@H]2CCCC[C@H]2N1 [Example 63] | 3.6 nM | 85.1 nM | 19.2% | 6.1% | 84 µL/min/mg
CC1(C)CN(c2ccc(OCCO)cc2Cl)[C@H]2CCCC[C@H]2N1 [Example 64, 2-(3-chloro-4-((4aR,8aS)-3,3-dimethyloctahydroquinoxalin-1(2H)-yl)phenoxy)ethan-1-ol 1/2fumarate] | 5.4 nM | 78.9 nM | 21.6% | 3.9% | < 50 µL/min/mg
Cc1c(OC(F)(F)CO)ccc(N2CC(C)(C)N[C@H]3CCCC[C@H]32)c1F [Example 69, 2-(4-((4aS,8aR)-3,3-dimethyloctahydroquinoxalin-1(2H)-yl)-3-fluoro-2-methylphenoxy)-2,2-difluoroethan-1-ol 1/2fumarate] | 3.4 nM | 91.4 nM | 45.6% | 19.7% | < 50 µL/min/mg
